In patent US8629159B2, “Thiazolidinedione analogues” (Metabolic Solutions Development Company, LLC, priority 2006, dated 2014):
Marks after values point to notes of the source that are not given here.

Experiments:
[1] = system: Male salt-sensitive Dahl rats; assay: Fasting free fatty acids (FFA) and adiponectin in treated Dahl rats; format: in vivo, rat; conditions: 3 weeks treatment; 40 mg/kg compound 1, 20 mg/kg rosiglitazone
Method: Doses of these compounds were chosen to produce the same metabolic effects in terms of reduction of triglycerides and elevation of adiponectin (Table E). Direct blood pressure (systolic and diastolic) and heart rate was also measured by telemetry (Tables F—H and FIG. 4).

[2] = system: Male salt-sensitive Dahl rats; assay: Blood pressure (systolic and diastolic) and heart rate by telemetry in hypertensive Dahl rats; format: in vivo, rat; conditions: 24 hour average
Method: Direct blood pressure (systolic and diastolic) and heart rate was also measured by telemetry (Tables F—H and FIG. 4). Data in Tables F—H and depicted in FIGS. 4A-4C are 24 hour averages for the last 4 days before the start of the daily oral gavage of treatments (−4, −3, −2, −1) and for the days 1-17 during the treatments shown.

[3] = day 1 of treatment, rosiglitazone 20 mg/kg, compound 1 40 mg/kg
[4] = day 2 of treatment, rosiglitazone 20 mg/kg, compound 1 40 mg/kg
[5] = day 3 of treatment, rosiglitazone 20 mg/kg, compound 1 40 mg/kg
[6] = day 4 of treatment, rosiglitazone 20 mg/kg, compound 1 40 mg/kg
[7] = day 5 of treatment, rosiglitazone 20 mg/kg, compound 1 40 mg/kg
[8] = day 6 of treatment, rosiglitazone 20 mg/kg, compound 1 40 mg/kg
[9] = day 7 of treatment, rosiglitazone 20 mg/kg, compound 1 40 mg/kg
[10] = day 8 of treatment, rosiglitazone 20 mg/kg, compound 1 40 mg/kg
[11] = day 9 of treatment, rosiglitazone 20 mg/kg, compound 1 40 mg/kg
[12] = day 10 of treatment, rosiglitazone 20 mg/kg, compound 1 40 mg/kg
[13] = day 11 of treatment, rosiglitazone 20 mg/kg, compound 1 40 mg/kg
[14] = day 12 of treatment, rosiglitazone 20 mg/kg, compound 1 40 mg/kg
[15] = day 13 of treatment, rosiglitazone 20 mg/kg, compound 1 40 mg/kg
[16] = day 14 of treatment, rosiglitazone 20 mg/kg, compound 1 40 mg/kg
[17] = day 15 of treatment, rosiglitazone 20 mg/kg, compound 1 40 mg/kg
[18] = day 16 of treatment, rosiglitazone 20 mg/kg, compound 1 40 mg/kg
[19] = day 17 of treatment, rosiglitazone 20 mg/kg, compound 1 40 mg/kg
[20] = day −1, before start of treatment
[21] = day −2, before start of treatment
[22] = day −3, before start of treatment
[23] = day −4, before start of treatment

In the case of `CN(CCOc1ccc(CC2SC(=O)NC2=O)cc1)c1ccccn1` (centres unmarked) [Rosiglitazone, reference compound], the Adiponectin [1] is reported as 36*, the FFA [1] is reported as 0.77* and the “Diastolic blood pressure measured by telemetry, Mean” value (shortened to “Diastolic blood pressure measured”) [2, 3] is reported as 119. For the same molecule, the Heart rate measured by telemetry, Mean [2, 3] was 407 bpm, the “Diastolic blood pressure measured” value [2, 4] was 121 and the Heart rate measured by telemetry, Mean [2, 4] was 402 bpm. For the same molecule, the “Systolic blood pressure measured by telemetry, Mean” value (“Systolic blood pressure measured” for short) [2, 4] was 172, the “Diastolic blood pressure measured” value [2, 5] was 123 and the Heart rate measured by telemetry, Mean [2, 5] was 405 bpm. The “Systolic blood pressure measured” value [2, 5] was 175, the “Diastolic blood pressure measured” value [2, 6] was 124 and the Heart rate measured by telemetry, Mean [2, 6] was 399 bpm. For the same molecule, the “Systolic blood pressure measured” value [2, 6] was 177, the “Diastolic blood pressure measured” value [2, 7] was 126 and the Heart rate measured by telemetry, Mean [2, 7] was 398 bpm. For the same molecule, the “Systolic blood pressure measured” value [2, 7] was 179, the “Diastolic blood pressure measured” value [2, 8] was 126 and the Heart rate measured by telemetry, Mean [2, 8] was 398 bpm. The “Systolic blood pressure measured” value [2, 8] was 179, the “Diastolic blood pressure measured” value [2, 9] was 131 and the Heart rate measured by telemetry, Mean [2, 9] was 393 bpm. For the same molecule, the “Systolic blood pressure measured” value [2, 9] was 184, the “Diastolic blood pressure measured” value [2, 10] was 135 and the Heart rate measured by telemetry, Mean [2, 10] was 401 bpm. For the same molecule, the “Systolic blood pressure measured” value [2, 10] was 188, the “Diastolic blood pressure measured” value [2, 11] was 136 and the Heart rate measured by telemetry, Mean [2, 11] was 398 bpm. The “Systolic blood pressure measured” value [2, 11] was 190, the Heart rate measured by telemetry, Mean [2, 12] was 398 bpm and the “Systolic blood pressure measured” value [2, 12] was 192. The Heart rate measured by telemetry, Mean [2, 13] was 399 bpm, the “Systolic blood pressure measured” value [2, 13] was 194 and the Heart rate measured by telemetry, Mean [2, 14] was 399 bpm. The “Systolic blood pressure measured” value [2, 14] was 196, the Heart rate measured by telemetry, Mean [2, 15] was 395 bpm and the “Systolic blood pressure measured” value [2, 15] was 196. The Heart rate measured by telemetry, Mean [2, 16] was 393 bpm, the “Systolic blood pressure measured” value [2, 16] was 198 and the Heart rate measured by telemetry, Mean [2, 17] was 398 bpm. The “Systolic blood pressure measured” value [2, 17] was 202, the Heart rate measured by telemetry, Mean [2, 18] was 401 bpm and the “Systolic blood pressure measured” value [2, 18] was 204. For the same molecule, the Heart rate measured by telemetry, Mean [2, 19] was 402 bpm, the “Systolic blood pressure measured” value [2, 19] was 204 and the “Diastolic blood pressure measured” value [2, 20] was 124. The Heart rate measured by telemetry, Mean [2, 20] was 395 bpm, the “Systolic blood pressure measured” value [2, 20] was 173 and the “Diastolic blood pressure measured” value [2, 21] was 127. The Heart rate measured by telemetry, Mean [2, 21] was 394 bpm, the “Systolic blood pressure measured” value [2, 21] was 176 and the “Diastolic blood pressure measured” value [2, 22] was 124. The Heart rate measured by telemetry, Mean [2, 22] was 400 bpm, the “Systolic blood pressure measured” value [2, 22] was 171 and the “Diastolic blood pressure measured” value [2, 23] was 124. For the same molecule, the Heart rate measured by telemetry, Mean [2, 23] was 403 bpm and the “Systolic blood pressure measured” value [2, 23] was 174.
